The subject of one data set is E. coli. Put plainly: Antibacterial activity evaluation (turbidity, OD600). It counts as cell-based, Escherichia coli (ATCC25922). The settings on record: E. coli ATCC25922. The method in brief:
(§1)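 Inocula set to 1.0 McFarland (enterococci) or 0.5 McFarland (S. aureus, E. coli), then diluted 1:200 in Mueller–Hinton broth. Growth read as OD600; EC50 given with standard error.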

For data set [1], the system named is E. faecium. The description is as above. It counts as cell-based, Enterococcus faecium (JCM5804). Conditions: for 50% effective concentration (EC50): growth of E. faecium. The method, boiled down: as §1
Data set [2] concerns E. faecium. Put plainly: Antibacterial assay with an excess concentration of biomolecules (Ser, Gly, inosine, dT, FA). The format is cell-based, Enterococcus faecium (JCM5804).
For the next data set, the system named is S. aureus. The data set is described as follows: Antibacterial activity evaluation (turbidity, OD600). It counts as cell-based, Staphylococcus aureus (ATCC29213). The settings on record: S. aureus ATCC29213. The method, boiled down: as §1
For the next data set, the system named is E. faecalis. Described as above. It counts as cell-based, Enterococcus faecalis (JCM7783). The settings on record: E. faecalis JCM7783. The method, boiled down: as §1
For data set [3] the following is noted: cited from earlier work.
Data set [4] has as its target efmSHMT (Enterococcus faecium, UniProt I3U4H4, M1V). The data set is described as follows: biochemical. It counts as binding.
For data set [5], the system named is efmSHMT. The format is binding, Enterococcus faecium. The settings on record: DSF; final drug concentration 50 μM. The protocol:
Protein samples were prepared as 20 μL aliquots containing 0.1 mg/mL protein (efmSHMT/ecSHMT), 1 μL of the ligand in DMSO (final drug concentration, 50 μM) and 2% or 4% SYPRO Orange (Invitrogen, MA, USA). […] Melting points were evaluated as the half-point of the maximum intensity of each curve.

A further data set has as its target T1, ecSHMT (Escherichia coli, UniProt P0A825).
T1 construct: His tag (followed by PreScission protease cleavage site) (N, cleaved yes); made in house; host or cells: E. coli BL21(DE3)
Put plainly: Thermal stability analysis using differential scanning fluorimetry (DSF). It counts as binding, E. coli. Conditions: final drug concentration 50 μM. The method, then: Protein samples were prepared as 20 μL aliquots containing 0.1 mg/mL protein (efmSHMT/ecSHMT), 1 μL of the ligand in DMSO (final drug concentration, 50 μM) and 2% or 4% SYPRO Orange (Invitrogen, MA, USA). Measurements were taken using StepOnePlus real-time PCR (Thermo Fisher Scientific) (temperature increment, 1.8%; range, 20–95 °C). Melting points were evaluated as the half-point of the maximum intensity of each curve.
In general terms: In DSF a fluorescence change marks the thermal transition of the protein.

In data set [6] the test system is E. faecium. The data set is described as follows: Bacterial viability assay (Microbial Viability Assay Kit-WST, OD450). The format is cell-based, Enterococcus faecium. The settings on record: for EC50: Enterococcus faecium. The protocol: Living E. faecium were determined using the Microbial Viability Assay Kit-WST (DOJINDO, Tokyo, Japan). […] Positive control wells included bacteria seeded into MH broth without compounds, and the negative control wells contained MH broth only. […] Five microlitres of the colouring reagent were added to each well of the 96-well plate every 2 h after starting incubation with each compound.

Data set [7] deals with the molecule itself. Put plainly: dynamic light scattering; 25 °C, Zetasizer NanoS, efmSHMT at 0.5 mg/mL, in triplicate; hydrodynamic radius 4.209 nm.

Where two headings read alike, the source gives them in different places.

efmSHMT (Enterococcus faecium, UniProt I3U4H4, M1V), sequence (I3U4H4 whole entry M1V): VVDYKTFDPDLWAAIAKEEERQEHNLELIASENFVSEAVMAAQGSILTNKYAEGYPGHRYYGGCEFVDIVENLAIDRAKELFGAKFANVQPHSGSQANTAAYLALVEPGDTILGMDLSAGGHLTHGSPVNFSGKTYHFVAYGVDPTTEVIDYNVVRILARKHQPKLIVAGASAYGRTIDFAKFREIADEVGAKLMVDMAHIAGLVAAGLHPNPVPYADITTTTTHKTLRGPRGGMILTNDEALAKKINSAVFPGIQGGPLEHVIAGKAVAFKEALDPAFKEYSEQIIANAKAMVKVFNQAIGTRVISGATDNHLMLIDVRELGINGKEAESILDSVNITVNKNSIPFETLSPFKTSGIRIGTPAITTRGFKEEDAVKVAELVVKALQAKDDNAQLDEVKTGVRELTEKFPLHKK
T1 sequence (P0A825 whole entry): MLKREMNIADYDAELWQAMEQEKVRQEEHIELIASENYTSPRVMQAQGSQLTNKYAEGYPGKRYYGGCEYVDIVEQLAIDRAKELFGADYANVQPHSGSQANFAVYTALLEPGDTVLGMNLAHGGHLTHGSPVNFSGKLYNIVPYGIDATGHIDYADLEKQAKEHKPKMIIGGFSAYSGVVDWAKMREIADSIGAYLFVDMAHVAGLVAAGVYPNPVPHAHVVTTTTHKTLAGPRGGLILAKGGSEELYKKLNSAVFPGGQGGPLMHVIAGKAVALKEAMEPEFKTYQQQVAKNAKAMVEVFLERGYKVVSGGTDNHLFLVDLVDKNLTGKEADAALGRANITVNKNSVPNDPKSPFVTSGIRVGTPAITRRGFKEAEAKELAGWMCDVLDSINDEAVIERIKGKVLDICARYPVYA

For the molecule `Cc1[nH]nc2c1C(c1cc(CO)cc(-c3ccccc3)c1)(C(C)C)C(C#N)=C(N)O2` (centres unmarked) [SHIN-1], the “pEC50 ± S.E.” value was under 5.7 with E. coli; 9.3 ± 0.1 in the data set on E. faecium [1] (E. faecium JCM5804); 8.3 ± 0.3 in the data set with E. faecium [2] (E. faecium JCM5804, 1 mM Inosine); under 5.7 in the data set on E. faecium [2] (E. faecium JCM5804, 1 mM deoxythymidine); 8.9 ± 0.0 in the data set on E. faecium [2] (E. faecium JCM5804, 10 mM Glycine); 8.5 ± 0.1 with E. faecium [2] (E. faecium JCM5804, 100 mM Serine). Also, the “pEC50 ± S.E.” value in the data set on E. faecium [2] (E. faecium JCM5804, 0.1 M folate) is under 5.7; in the data set on S. aureus it was under 5.7; in the data set with E. faecalis it was under 5.7. The EC50 in the data set on E. coli (read-out: EC50) was over 2000 nM; in the data set with E. faecium [1] (E. faecium JCM5804, read-out: EC50), 0.5 nM; in the data set with E. faecium [2] (E. faecium JCM5804, 1 mM Inosine, read-out: EC50) it was 5.2 nM; in the data set on E. faecium [2] (E. faecium JCM5804, 1 mM deoxythymidine, read-out: EC50), over 2000 nM; with E. faecium [2] (E. faecium JCM5804, 10 mM Glycine, read-out: EC50), 1.2 nM; in the data set on E. faecium [2] (E. faecium JCM5804, 100 mM Serine, read-out: EC50), 3.4 nM. In addition, the EC50 in the data set on E. faecium [2] (E. faecium JCM5804, 0.1 M folate, read-out: EC50) is over 2000 nM; in the data set with S. aureus (read-out: EC50), over 2000 nM; with E. faecalis (read-out: EC50), over 2000 nM. Besides, the “50% effective concentration (EC50)” value in the data set with E. faecium [1] (order of magnitude given) is listed as 10^–10 to 10^–11 M. In addition, the pharmacokinetic properties result in data set [3] is “lacked pharmacokinetic properties suitable”. Moreover, the half-life result in data set [3] (response letter, ref (6) García-Cañaveras et al. 2021) is given as “too short to use in vivo”.

Turning to `Cc1n[nH]c2c1[C@](c1cc(CO)cc(-c3ccccc3)c1)(C(C)C)C(C#N)=C(N)O2` [(+)-SHIN-1], the Ki (in general, a measure of affinity in units of concentration, obtained from inhibition or displacement) is 8.8 nM at efmSHMT [4] (Ki, 2.5 μM efmSHMT, 10 mM Gly and 100 μM Ser, Cheng-Prusoff); 28 nM on efmSHMT [4] (Ki, 5 μM efmSHMT, 10 mM Gly and 100 μM Ser, Cheng-Prusoff); under 8.8 nM on efmSHMT [4] (actual Ki (bound, as the assay's efmSHMT detection limit is 2.5 μM), efmSHMT); 7.94 nM on efmSHMT [4] (pKi ± pSE, 2.5 μM efmSHMT, 10 mM Gly and 100 μM Ser); 25.1 nM at efmSHMT [4] (pKi ± pSE, 5 μM efmSHMT, 10 mM Gly and 100 μM Ser). Further, the EC50 in the data set with E. coli (Escherichia coli, read-out: EC50) was over 2000 nM; with E. coli (Escherichia coli, read-out: pEC50 ± S.E. (converted)), over 2000 nM; in the data set on E. faecium [1] (Enterococcus faecium, read-out: 50% effective concentration (EC50), growth of E. faecium, order of magnitude given) it was 0.01 nM; in the data set with E. faecium [1] (Enterococcus faecium, E. faecium JCM5804, read-out: EC50), 0.031 nM; with E. faecium [1] (Enterococcus faecium, E. faecium JCM5804, read-out: pEC50 ± S.E. (converted)), 0.0316 nM; in the data set on E. faecium [1] (Enterococcus faecium, E. faecium, value of the response letter (earlier manuscript version), read-out: EC50 (turbidity)), 0.044 ± 0.028 nM. The EC50 is 0.36 nM in the data set on E. faecium [2] (Enterococcus faecium, JCM5804, E. faecium JCM5804, 1 mM Inosine, read-out: EC50); 0.398 nM in the data set on E. faecium [2] (Enterococcus faecium, JCM5804, E. faecium JCM5804, 1 mM Inosine, read-out: pEC50 ± S.E. (converted)); over 2000 nM in the data set with E. faecium [2] (Enterococcus faecium, JCM5804, E. faecium JCM5804, 1 mM deoxythymidine, read-out: EC50); over 2000 nM in the data set on E. faecium [2] (Enterococcus faecium, JCM5804, E. faecium JCM5804, 1 mM deoxythymidine, read-out: pEC50 ± S.E. (converted)); 0.12 nM in the data set with E. faecium [2] (Enterococcus faecium, JCM5804, E. faecium JCM5804, 10 mM Glycine, read-out: EC50); 0.126 nM in the data set with E. faecium [2] (Enterococcus faecium, JCM5804, E. faecium JCM5804, 10 mM Glycine, read-out: pEC50 ± S.E. (converted)). Further, the EC50 with E. faecium [2] (Enterococcus faecium, JCM5804, E. faecium JCM5804, 100 mM Serine, read-out: EC50) is 0.43 nM; with E. faecium [2] (Enterococcus faecium, JCM5804, E. faecium JCM5804, 100 mM Serine, read-out: pEC50 ± S.E. (converted)), 0.398 nM; in the data set with E. faecium [2] (Enterococcus faecium, JCM5804, E. faecium JCM5804, 0.1 M folate, read-out: EC50), over 2000 nM; in the data set with E. faecium [2] (Enterococcus faecium, JCM5804, E. faecium JCM5804, 0.1 M folate, read-out: pEC50 ± S.E. (converted)), over 2000 nM; in the data set on S. aureus (Staphylococcus aureus, read-out: EC50), over 2000 nM; with S. aureus (Staphylococcus aureus, read-out: pEC50 ± S.E. (converted)), over 2000 nM. Also, the EC50 with E. faecalis (Enterococcus faecalis, read-out: EC50) is over 2000 nM; in the data set on E. faecalis (Enterococcus faecalis, read-out: pEC50 ± S.E. (converted)) it was over 2000 nM; in the data set with E. faecium [6] (relative bacterial viability after 14 h incubation), 0.23 nM; in the data set with E. faecium [6] (value of the response letter (earlier manuscript version)), 0.21 ± 0.13 nM. The “50% effective concentration (EC50)” value with E. faecium [1] (order of magnitude given) is reported as 10^–10 to 10^–11 M. For the same molecule, the “ΔTm (thermal stability of efmSHMT)” value with efmSHMT [5] was found to be 7 °C. Also, the “binding to ecSHMT (DSF)” value at ecSHMT was “bound to ecSHMT”. In addition, the “mode of antibacterial action (time-dependent bacterial viability)” value in the data set on E. faecium [6] was “bacteriostatically”.

B1: Enterococcus faecium serine hydroxymethyltransferase (enzyme)
chain: VDYKTFDPDLWAAIAKEEERQEHNLELIASENFVSEAVMAAQGSILTNKYAEGYPGHRYYGGCEFVDIVENLAIDRAKELFGAKFANVQPHSGSQANTAAYLALVEPGDTILGMDLSAGGHLTHGSPVNFSGKTYHFVAYGVDPTTEVIDYNVVRILARKHQPKLIVAGASAYGRTIDFAKFREIADEVGAKLMVDMAHIAGLVAAGLHPNPVPYADITTTTTHKTLRGPRGGMILTNDEALAKKINSAVFPGIQGGPLEHVIAGKAVAFKEALDPAFKEYSEQIIANAKAMVKVFNQAIGTRVISGATDNHLMLIDVRELGINGKEAESILDSVNITVNKNSIPFETLSPFKTSGIRIGTPAITTRGFKEEDAVKVAELVVKALQAKDDNAQLDEVKTGVRELTEKFPLHKK
modifications: pyridoxal 5'-phosphate (PLP) covalently linked as a Schiff's base to K226 (in the efmSHMT/(+)-SHIN-1 structure; relocated to Ser or Gly in the ternary complexes)
notes: theoretical monomer molecular weight 44.7 kDa; A few vector residues may remain at the N-terminus after PreScission cleavage; also called efmSHMT; E. faecium SHMT; source: E. coli BL21(DE3), purified (HisTrap, PreScission digestion, HiTrap Q, Superdex 75); not shown: His tag, N-terminal, cleaved
With B1, in [7], the stoichiometry N (commonly a count of units in the complex or per binding partner) came to 2.

The values above are taken from publication PMC9223267, “Serine hydroxymethyltransferase as a potential target of antibacterial agents acting synergistically with one-carbon metabolism-related inhibitors” (Communications Biology, 2022).
